We go through 1 compound from patent US6265423A, “Aromatic polycyclic retinoid-type derivatives, method for preparing same, and use thereof for making pharmaceutical and cosmetic compositions” (priority 1996, dated 2001).

“Also recorded” adds a separate entry of the source.

Assay [1] concerns AP-1, MTLN lineage (MCF-7). The experiment in a line: Anti-AP-1 effect, MTLN lineage activated by TPA. It is filed as cell-based, human. The settings on record: TPA-activated MTLN cells. As to the method:
(§1) Certain properties of the retinoids have been determined using more developed cellular models. These models consist of cellular lineages transfected in a stable fashion by recombinant plasmids which place the expression of the gene of the luciferase under the control of different nuclear response elements. […] The tests carried out in duplicate are described below for each of these models.
The anti-factor AP-1 transrepressor effect of retinoids is determined using the MTLN lineage, coming from MCF-7 cells transfected in a stable fashion by a vector p(TRE)3 -tk-Luc which places the expression of the gene of luciferase under the control of […]. TPA activates the AP-1 complex formed from proteins of the family of nuclear proto-oncogenes (c-Jun and c-Fos). […] The experiments are made with the MTLN cells activated by 10^-7 M TPA.
The effect of the compounds on the MTLN cells activated by 10^-7 M TPA is expressed as a percentage. […] The inhibitive properties of the products are calculated after deduction of the base activity of the cells. The percentages reported correspond to a range of inhibitions determined from several experiments.

Assay [2] has as its system Gal4-RARγ. The experiment in a line: Transactivation, chimerical receptor Gal4-RARγ (transitory transfection of HeLa). The settings on record: 100% = TTNPB 10^-8 M. It counts as cell-based.
The test system of assay [3] is RAR-ERcassettes (RARα, RARβ, RARγ). The experiment in a line: Chimerical receptors RAR-ERcassettes, overall profile. It counts as cell-based. The source says: (§2) The HeLa cells are co-transfected by a plasmid which codes for a retinoic receptor in which the C domain of bonding to the DNA is substituted by that of the receptor to RE oestrogens, and a plasmid which places the expression of the luciferase under the control of an ERE (Element of Response to Oestrogens). The expressed chimerical receptors are designated as RARα-ERcassette, RARβ-ERcassette, RARγ-ERcassette and RXRα-ERcassette. The A, B, D, E and F regions of the natural receptor are preserved as well as the transcriptional co-operation between the activation domains AF-1 and AF-2. These transitory transfection experiments follow the method of co-precipitation to calcium phosphate. The HeLa cells are co-transfected by […] of plasmid coding for the chimerical receptor, […] of reporter plasmid and […] of expression vector CMV-β-galactosidase used as an internal control of transfection. 24 hours after the transfection, the cells are incubated for 16 hours with the different effectors.
(§3) In this type of chimerical receptor, the C domain of bonding to the DNA of RAR is substituted by that of the receptor to the RE oestrogens. The protein obtained is close to the natural RAR receptor and preserves the transcriptional properties of the AF-1 and AF-2 domains. It modulates the transcription by means of an ERE. This RAR-ERcassette model allows one to observe a transcriptional response to a more physiological ligand.

The subject of assay [4] is A549 human pulmonary cancer cells. In words: MTT test, proliferation of A549. It counts as cell-based. The settings on record: MTT test. A general note: Tetrazolium assays rely on reduction of a dye to a coloured formazan, in cell work by metabolically active cells.
Assay [5] relates to T-47D cells. In words: Effect on oestrogen-induced proliferation of T-47D cells. Conditions: estradiol 10^-9 M. It counts as cell-based, human. As for the experimental part:
(§4) MCF-7 cells and HeLa are cultivated in DMFM with phenol red to which 5% foetal calf serum is added. The T47-D cells are cultivated in RPMI to which 10% foetal calf serum is added. The experimental tests are carried out in DMEM without phenol red to which foetal calf serum treated with dextran carbon is added at 3%. […] The experiments using the different retinoids are carried out sheltered from the light so as to avoid any isomerisation.
So as to test the anti-proliferation effect of the retinoids, growth experiments under oestrogenic conditions were carried out on cells MCF-7 and T-47D. These are the human oestrogen-dependent mammary cancer cells which express the receptor to RE oestrogens. The effect of the molecules is evaluated after 7 days of culture in oestrogenic conditions (estradiol 10^-9 M) by dosing the cellular DNA. The cells are distributed in 24 well plates at a density of 2×10^4 cells per well. The tests with the different retinoids are carried out in triplicate and the culture medium is changed after 4 days of growth.

In assay [6] the test system is RARβ-ERcassette. The experiment in a line: Transactivation, chimerical receptor RARβ-ERcassette (HeLa). It is filed as cell-based. Conditions: TTNPB 10^-8 M = 100.
Description: as §2, §3

The subject of assay [7] is Gal4-RARβ. The experiment in a line: Transactivation, chimerical receptor Gal4-RARβ (transitory transfection of HeLa). It is filed as cell-based. Conditions: 100% = TTNPB 10^-8 M.
The subject of assay [8] is RARE, endogenic RAR and RXR receptors, HRL+N lineage. The experiment in a line: HRL+N transactivation (RARE-luciferase, stably transfected HeLa). It counts as cell-based. As for the experimental part: as §4, §1
The cellular lineages HRLN and HRL+N allow one to study the activation of an RARE by endogenic receptors using ligands at physiological concentrations. These lineages derive from HeLa cells transfected in a stable fashion by a reporter gene which places the expression of the gene of the luciferase under the control of a nuclear response element RARE (RARE3 -tk-Luc). The HeLa cells express all the known receptors of the retinoic acid (RARα,β,γ and RXRα,β,γ) with a predominance of RARα and RXRα. The response element RARE used for the HRLN cells corresponds to the sequence of the natural gene of the RARβ receptor (GGTTCAnnnnnAGTTCA). The HRL+N cells comprise the sequence GAGTGAnnnnnCGGTGA.
The HRL+N lineage allows one to visualise a co-activation of the RAR and RXR receptors at the level of the RAR-RXR hetero-dimer.

For assay [9], the system named is human mammary tumoral lineage T-47D. The experiment in a line: Clonogenic test (soft agar), growth of cellular colonies. It counts as cell-based. Conditions: T-47D, soft agar. An excerpt:
The human tumour stem cells are the clonogenic cells which are the origin of the neoplasic cells which constitute a given tumour. These tumour stem cells are responsible for the recidivism process observable after surgical resection of the primary tumours and are also responsible for the formation of metastases. […] At the level of a tumour or of a tumoral cellular lineage, these clonogenic stem cells distinguish themselves from other clonogenic cells of the tumour or of the neoplasic cellular lineage being considered, by the fact that they preserve their ability to proliferate in the absence of any solid support.
This technique is suitable for the culturing in vitro of most of the tumours and tumoral cellular lineages of various histological types. In the context of this test, the neoplastic cells are cultured on a semi-solid culture medium "soft agar" made up of a mixture of agar and agarose. On this selective support, only tumoral stem cells survive and proliferate. […] The morphological characteristics and the growth of the cellular colonies are also a function of the histological type of the tumours being considered.
These culture conditions are also called "anchorage-independent" conditions.
The base medium "MEM 25 MM HEPES" (Minimum Essential Medium, Life Technologies, Belgium) contains Eagle salts but no L-glutamine. This medium is well suited to the growth of a range of varied diploid cells or primary mammal cells. To this medium is then added:
The tumoral cells are maintained in culture in 25 cm^2 falcon dishes (Life Technologies, Belgium). They are then trypsinised and individualised. Their rate of viability is determined by coloration with trypan blue (Sigma, Belgium). It must be greater than 90%. In the case where this condition is kept to, a cellular suspension at the desired concentration is prepared in a solution of agar at 0. 3%. The cells are then seeded between two layers of agar (Sigma, Belgium) and in 35 mm Petri dishes (Life Technologies, Belgium). The base layer is made up of a 0.5% solution of agar and the top layer is made up of a 0.3% solution of agar. The cupules are then positioned and held in an incubator at 37° C. and 5% of CO2. […] After treatment, the cupules are kept in the incubator for 21 days. It is advisable to examine, during the course of the experiment, the appearance and the increase of the cellular colonies. If after 10 days, no colony appears or is developing, the experiment must be repeated. In the contrary case, on the 21st day, 100 μl of an MTT solution (3-(4,5-dimethylthiazol-2-yl)-2,5 diphenyl tetrazolium bromide; Sigma, Belgium) dissolved in the RPMI culture medium (Roswell park Memorial Institute, Life Technologies, Belgium), at the concentration of 1 mg/ml are deposited on the top layer of the group of cupules. The cells are kept in contact with this solution for a minimum of 3 hours at 37° C.
Using an inverted microscope at low magnification, the number of clones whose surface area is greater thar. 100 μm^2 is determined for the group of cupules representing all the different experimental conditions. Then, for each of these experimental conditions, the mean number of cellular colonies±the standard error on the mean (ESM) is calculated.
The mean number of cellular colonies determined for each experimental condition is expressed as a percentage in relation to the control condition made equal to 100%.

For assay [10], the system named is MCF-7 cells. In words: Effect on oestrogen-induced proliferation of MCF-7 cells. It is filed as cell-based, human. Conditions: estradiol 10^-9 M.
Description: MCF-7 cells and HeLa are cultivated in DMFM with phenol red to which 5% foetal calf serum is added. […] The experimental tests are carried out in DMEM without phenol red to which foetal calf serum treated with dextran carbon is added at 3%. […] The experiments using the different retinoids are carried out sheltered from the light so as to avoid any isomerisation.

As to `C=C(c1ccc(C(=O)O)cc1)c1cc2c(cc1C)C(C)(C)CCC2(C)C` [LGD1069, reference compound], in assay [1], the “anti-AP-1 effect (in words)” value is on record as “causes an inhibition of the AP-1 route; also recorded: the most effective compound tested in this model”. The “GAL4-RAR RARγ transactivation” value in assay [2] (10^-6 M) was determined as 29%; in assay [2] (10^-7 M), 8%; in assay [2] (10^-8 M), 1%. In addition, the “RAR-ERcassette profile (in words)” value in [3] is “transcriptional power appears higher notably through the RARβ-ERcassette; also recorded: permits a co-activation of RAR and RXR, bringing about an over-activation of the hetero-dimer in comparison with the specific RAR activation of TTNPB”. Also, the “effect on cellular increase, A549 (in words)” value in [4] was “induces a stimulation of the proliferation of the A549 cells at 10^-6 M and 10^-8 M”. Moreover, the “effect on oestrogen-induced growth, T-47D (in words)” value in assay [5] was “exerts no effect whatsoever on the growth of MCF-7 and T-47D cells in oestrogenic conditions”. For the same compound, the “RAR-ERcassette RARβ transactivation” value in assay [6] (10^-6 M) was 237%; in [6] (10^-7 M), 194%. For the same compound, the “GAL4-RAR RARβ transactivation” value amounted to 5% in assay [7] (10^-7 M) and 1% in assay [7] (10^-8 M). The “HRL+N transactivation (in words)” value in assay [8] is “induce a stronger transactivation with the HRL+N cells; also recorded: behaves as a panagonistic molecule”. Moreover, the “effect on growth of cellular colonies (in words)” value in assay [9] was “strongly and significantly inhibits the growth of cellular colonies of the T-47D lineage”. Moreover, in assay [10], the “effect on oestrogen-induced growth, MCF-7 (in words)” value was “exerts no effect whatsoever on the growth of MCF-7 and T-47D cells in oestrogenic conditions”.
